Patent publication US8283361B2 (AstraZeneca AB, priority 2008, dated 2012)

Target: S. aureus GyrB ATPase (Staphylococcus aureus, UniProt P0A0K8)
Assay: biochemical
Settings: compound at 1 μM; one value per test if tested more than once; read-out: % Inhibition of S. aureus GyrB ATPase
In short: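 IC50 values derive from 10-point titrations of compound (in DMSO). Phosphate formed from 250 μM ATP was quantified by acidic molybdate/malachite green after quenching.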

S. aureus GyrB ATPase, sequence (P0A0K8 whole entry): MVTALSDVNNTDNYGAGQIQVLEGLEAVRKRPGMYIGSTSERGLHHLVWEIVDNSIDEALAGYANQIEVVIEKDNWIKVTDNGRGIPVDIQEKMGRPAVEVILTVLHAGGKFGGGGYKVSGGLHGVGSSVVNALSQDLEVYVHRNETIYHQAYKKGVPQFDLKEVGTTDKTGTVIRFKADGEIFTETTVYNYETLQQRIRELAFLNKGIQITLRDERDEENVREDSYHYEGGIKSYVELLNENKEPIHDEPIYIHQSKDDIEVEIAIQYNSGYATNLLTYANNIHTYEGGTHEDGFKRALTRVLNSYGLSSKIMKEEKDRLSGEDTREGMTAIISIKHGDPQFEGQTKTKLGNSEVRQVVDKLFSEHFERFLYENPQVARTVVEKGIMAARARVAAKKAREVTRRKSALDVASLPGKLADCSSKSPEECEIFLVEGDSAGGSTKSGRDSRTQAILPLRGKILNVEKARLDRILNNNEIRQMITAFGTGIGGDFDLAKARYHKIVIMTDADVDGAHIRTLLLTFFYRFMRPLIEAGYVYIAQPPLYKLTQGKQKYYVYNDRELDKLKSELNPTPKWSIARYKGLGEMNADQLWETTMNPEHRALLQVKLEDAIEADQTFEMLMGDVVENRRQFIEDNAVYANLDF
S. aureus GyrB ATPase, sequence (P0AES4 whole entry, further chain): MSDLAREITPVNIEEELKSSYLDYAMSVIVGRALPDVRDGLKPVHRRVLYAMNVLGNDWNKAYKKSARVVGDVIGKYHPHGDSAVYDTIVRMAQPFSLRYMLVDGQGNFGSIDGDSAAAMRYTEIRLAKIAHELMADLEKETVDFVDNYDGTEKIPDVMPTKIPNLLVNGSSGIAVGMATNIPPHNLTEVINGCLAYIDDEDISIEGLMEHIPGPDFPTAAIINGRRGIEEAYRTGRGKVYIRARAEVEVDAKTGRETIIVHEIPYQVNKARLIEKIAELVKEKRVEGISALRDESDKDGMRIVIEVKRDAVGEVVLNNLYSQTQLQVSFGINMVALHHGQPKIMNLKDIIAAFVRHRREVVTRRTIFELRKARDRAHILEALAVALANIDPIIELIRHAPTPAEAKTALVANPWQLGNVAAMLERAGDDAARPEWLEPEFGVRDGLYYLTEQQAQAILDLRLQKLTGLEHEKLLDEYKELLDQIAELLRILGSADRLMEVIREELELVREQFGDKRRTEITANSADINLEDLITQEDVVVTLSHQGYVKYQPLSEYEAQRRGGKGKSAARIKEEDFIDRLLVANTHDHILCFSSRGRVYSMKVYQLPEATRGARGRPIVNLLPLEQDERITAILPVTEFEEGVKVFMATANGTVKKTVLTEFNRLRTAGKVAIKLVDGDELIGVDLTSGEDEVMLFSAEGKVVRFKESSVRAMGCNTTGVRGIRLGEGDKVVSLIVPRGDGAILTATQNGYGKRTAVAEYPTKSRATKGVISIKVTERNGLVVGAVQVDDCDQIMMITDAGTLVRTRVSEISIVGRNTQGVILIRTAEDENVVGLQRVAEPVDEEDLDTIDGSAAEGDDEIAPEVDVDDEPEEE

Q: `CCNC(=O)Nc1cc(-c2nc(C(F)(F)F)cs2)c(-c2ccc3c(c2)c(=O)c(C(=O)NC2CC2)cn3C2CC2)cn1` [Example 326, N,1-Dicyclopropyl-6-(6-(3-ethylureido)-4-(4-(trifluoromethyl)thiazol-2-yl)pyridin-3-yl)-4-oxo-1,4-dihydroquino-line-3-carboxamide] was tested. Which inhibition at 1 µM did it give?
A: The inhibition at 1 µM was 97%.

Q: `CCNC(=O)Nc1cc(-c2nc(C(F)(F)F)cs2)c(-c2ccc3c(c2)c(=O)c(C(=O)NC(COC)COC)cn3C2CC2)cn1` [Example 327, 1-Cyclopropyl-N-(1,3-dimethoxy-propan-2-yl)-6-(6-(3-ethylureido)-4-(4-(trifluoromethyl)thiazol-2-yl)pyridin-3-yl)-4-oxo-1,4-dihydroquinoline-3-carboxamide] was tested. Which inhibition at 1 µM did it give?
A: The inhibition at 1 µM was 100%.

Q: With `CCNC(=O)Nc1cc(-c2nc(C(F)(F)F)cs2)c(-c2ccc3c(c2)c(=O)c(C(=O)NCC(O)CO)cn3C2CC2)cn1` (stereo not shown) [Example 328, 1-Cyclopropyl-N-(2,3-dihydroxy-propyl)-6-(6-(3-ethylureido)-4-(4-(trifluoromethyl)thiazol-2-yl)pyridin-3-yl)-4-oxo-1,4-dihydroquinoline-3-carboxamide] as the molecule, how does the inhibition at 1 µM read?
A: Its inhibition at 1 µM is 109%.

Q: Which inhibition at 1 µM does the source give for `CCNC(=O)Nc1cc(-c2nc(C(F)(F)F)cs2)c(-c2ccc3c(c2)c(=O)c(C(=O)NCCO)cn3Cc2noc(C3CC3)n2)cn1` [Example 329] here?
A: Its inhibition at 1 µM is 97%.

Q: With `CCNC(=O)Nc1cc(-c2nc(C(F)(F)F)cs2)c(-c2ccc3c(=O)c(C(=O)NCCO)cn(CC)c3c2)cn1` [Example 330, 1-Ethyl-7-{6-[(ethylcarbamoyl)amino]-4-[4-(trifluoromethyl)-1,3-thiazol-2-yl]pyridin-3-yl}-N-(2-hydroxyethyl)-4-oxo-1,4-dihydroquinoline-3-carboxamide] as the molecule, how does the inhibition at 1 µM read?
A: The inhibition at 1 µM was 109%.

Q: Which inhibition at 1 µM does the source give for `CCNC(=O)Nc1cc(-c2nc(C(F)(F)F)cs2)c(-c2ccc3c(=O)c(C(=O)NCCCO)cn(CC)c3c2)cn1` [Example 331, 1-Ethyl-7-{6-[(ethylcarbamoyl)amino]-4-[4-(trifluoromethyl)-1,3-thiazol-2-yl]pyridin-3-yl}-N-(3-hydroxypropyl)-4-oxo-1,4-dihydroquinoline-3-carboxamide] here?
A: Its inhibition at 1 µM is 109%.

Q: For `CCNC(=O)Nc1cc(-c2nc(C(F)(F)F)cs2)c(-c2ccc3c(=O)c(C(=O)NCCN(C)C)cn(CC)c3c2)cn1` [Example 332, N-[2-(dimethylamino)ethyl]-1-ethyl-7-{6-[(ethylcarbamoyl)amino]-4-[4-(trifluoromethyl)-1,3-thiazol-2-yl]pyridin-3-yl}-4-oxo-1,4-dihydroquinoline-3-carboxamide], which inhibition at 1 µM is on record?
A: The inhibition at 1 µM was 109%.

Q: For `CCNC(=O)Nc1cc(-c2nc(C(F)(F)F)cs2)c(-c2ccc3c(=O)c(C(=O)NCCN4CCOCC4)cn(CC)c3c2)cn1` [Example 333, 1-Ethyl-7-{6-[(ethylcarbamoyl)amino]-4-[4-(trifluoromethyl)-1,3-thiazol-2-yl]pyridin-3-yl}-N-[2-(morpholin-4-yl)ethyl]-4-oxo-1,4-dihydroquinoline-3-carboxamide], which inhibition at 1 µM is on record?
A: Its inhibition at 1 µM is 106%.

Q: How did the inhibition at 1 µM turn out when `CCNC(=O)Nc1cc(-c2nc(C(F)(F)F)cs2)c(-c2ccc3c(=O)c(C(=O)NCCN4CCN(C)CC4)cn(CC)c3c2)cn1` [Example 334, 1-Ethyl-7-{6-[(ethylcarbamoyl)amino]-4-[4-(trifluoromethyl)-1,3-thiazol-2-yl]pyridin-3-yl}-N-[2-(4-methylpiperazin-1-yl)ethyl]-4-oxo-1,4-dihydroquinoline-3-carboxamide] was run?
A: Its inhibition at 1 µM is 95%.

Q: `CCNC(=O)Nc1cc(-c2nc(C(F)(F)F)cs2)c(-c2ccc3c(=O)c(C(=O)NC)cn(CCC(C)C)c3c2)cn1` [Example 335, 7-{6-[(ethylcarbamoyl)amino]-4-[4-(trifluoromethyl)-1,3-thiazol-2-yl]pyridin-3-yl}-N-methyl-1-(3-methylbutyl)-4-oxo-1,4-dihydroquinoline-3-carboxamide] was tested. Which inhibition at 1 µM did it give?
A: Its inhibition at 1 µM is 107%.

Q: For `CCNC(=O)Nc1cc(-c2nc(C(F)(F)F)cs2)c(-c2ccc3c(=O)c(C(=O)NCCO)cn(CCC(C)C)c3c2)cn1` [Example 336, 7-{6-[(ethylcarbamoyl)amino]-4-[4-(trifluoromethyl)-1,3-thiazol-2-yl]pyridin-3-yl}-N-(2-hydroxyethyl)-1-(3-methylbutyl)-4-oxo-1,4-dihydroquinoline-3-carboxamide], which inhibition at 1 µM is on record?
A: The inhibition at 1 µM was 109%.

Q: For `CCNC(=O)Nc1cc(-c2nc(C(F)(F)F)cs2)c(-c2ccc3c(=O)c(C(=O)NCCCO)cn(CCC(C)C)c3c2)cn1` [Example 337, 7-{6-[(ethylcarbamoyl)amino]-4-[4-(trifluoromethyl)-1,3-thiazol-2-yl]pyridin-3-yl}-N-(3-hydroxypropyl)-1-(3-methylbutyl)-4-oxo-1,4-dihydroquinoline-3-carboxamide], which inhibition at 1 µM is on record?
A: The inhibition at 1 µM was 106%.

Q: With `CCNC(=O)Nc1cc(-c2nc(C(F)(F)F)cs2)c(-c2ccc3c(=O)c(C(=O)NCCN(C)C)cn(CCC(C)C)c3c2)cn1` [Example 338, N-[2-(dimethylamino)ethyl]-7-{6-[(ethylcarbamoyl)amino]-4-[4-(trifluoromethyl)-1,3-thiazol-2-yl]pyridin-3-yl}-1-(3-methylbutyl)-4-oxo-1,4-dihydroquinoline-3-carboxamide] as the molecule, how does the inhibition at 1 µM read?
A: Its inhibition at 1 µM is 99%.

Q: `CCNC(=O)Nc1cc(-c2nc(C(F)(F)F)cs2)c(-c2ccc3c(=O)c(C(=O)NCCN4CCOCC4)cn(CCC(C)C)c3c2)cn1` [Example 339, 7-{6-[(ethylcarbamoyl)amino]-4-[4-(trifluoromethyl)-1,3-thiazol-2-yl]pyridin-3-yl}-1-(3-methylbutyl)-N-[2-(morpholin-4-yl)ethyl]-4-oxo-1,4-dihydroquinoline-3-carboxamide] was tested. Which inhibition at 1 µM did it give?
A: The inhibition at 1 µM was 109%.

Q: `CCNC(=O)Nc1cc(-c2nc(C(F)(F)F)cs2)c(-c2ccc3c(=O)c(C(=O)NCCN4CCN(C)CC4)cn(CCC(C)C)c3c2)cn1` [Example 340, 7-{6-[(ethylcarbamoyl)amino]-4-[4-(trifluoromethyl)-1,3-thiazol-2-yl]pyridin-3-yl}-1-(3-methylbutyl)-N-[2-(4-methylpiperazin-1-yl)ethyl]-4-oxo-1,4-dihydroquinoline-3-carboxamide] was tested. Which inhibition at 1 µM did it give?
A: Its inhibition at 1 µM is 93%.

Q: Which inhibition at 1 µM does the source give for `CCNC(=O)Nc1cc(-c2nc(C(F)(F)F)cs2)c(-c2ccc3c(=O)c(C(=O)NC)cn(CC(C)C)c3c2)cn1` [Example 341, 7-{6-[(ethylcarbamoyl)amino]-4-[4-(trifluoromethyl)-1,3-thiazol-2-yl]pyridin-3-yl}-N-methyl-1-(2-methylpropyl)-4-oxo-1,4-dihydroquinoline-3-carboxamide] here?
A: Its inhibition at 1 µM is 99%.

Q: How did the inhibition at 1 µM turn out when `CCNC(=O)Nc1cc(-c2nc(C(F)(F)F)cs2)c(-c2ccc3c(=O)c(C(=O)NCCO)cn(CC(C)C)c3c2)cn1` [Example 342, 7-{6-[(ethylcarbamoyl)amino]-4-[4-(trifluoromethyl)-1,3-thiazol-2-yl]pyridin-3-yl}-N-(2-hydroxyethyl)-1-(2-methylpropyl)-4-oxo-1,4-dihydroquinoline-3-carboxamide] was run?
A: Its inhibition at 1 µM is 99%.

Q: Which inhibition at 1 µM does the source give for `CCNC(=O)Nc1cc(-c2nc(C(F)(F)F)cs2)c(-c2ccc3c(=O)c(C(=O)NCCCO)cn(CC(C)C)c3c2)cn1` [Example 343, 7-{6-[(ethylcarbamoyl)amino]-4-[4-(trifluoromethyl)-1,3-thiazol-2-yl]pyridin-3-yl}-N-(3-hydroxypropyl)-1-(2-methylpropyl)-4-oxo-1,4-dihydroquinoline-3-carboxamide] here?
A: The inhibition at 1 µM was 98%.

Q: How did the inhibition at 1 µM turn out when `CCNC(=O)Nc1cc(-c2nc(C(F)(F)F)cs2)c(-c2ccc3c(=O)c(C(=O)NCCN(C)C)cn(CC(C)C)c3c2)cn1` [Example 344, N-[2-(dimethylamino)ethyl]-7-{6-[(ethylcarbamoyl)amino]-4-[4-(trifluoromethyl)-1,3-thiazol-2-yl]pyridin-3-yl}-1-(2-methylpropyl)-4-oxo-1,4-dihydroquinoline-3-carboxamide] was run?
A: Its inhibition at 1 µM is 95%.

Q: How did the inhibition at 1 µM turn out when `CCNC(=O)Nc1cc(-c2nc(C(F)(F)F)cs2)c(-c2ccc3c(=O)c(C(=O)NCCN4CCOCC4)cn(CC(C)C)c3c2)cn1` [Example 345, 7-{6-[(ethylcarbamoyl)amino]-4-[4-(trifluoromethyl)-1,3-thiazol-2-yl]pyridin-3-yl}-1-(2-methylpropyl)-N-[2-(morpholin-4-yl)ethyl]-4-oxo-1,4-dihydroquinoline-3-carboxamide] was run?
A: Its inhibition at 1 µM is 98%.

Q: With `CCNC(=O)Nc1cc(-c2nc(C(F)(F)F)cs2)c(-c2ccc3c(=O)c(C(=O)NCCN4CCN(C)CC4)cn(CC(C)C)c3c2)cn1` [Example 346, 7-{6-[(ethylcarbamoyl)amino]-4-[4-(trifluoromethyl)-1,3-thiazol-2-yl]pyridin-3-yl}-N-[2-(4-methylpiperazin-1-yl)ethyl]-1-(2-methylpropyl)-4-oxo-1,4-dihydroquinoline-3-carboxamide] as the molecule, how does the inhibition at 1 µM read?
A: The inhibition at 1 µM was 87%.

Q: How did the inhibition at 1 µM turn out when `CCCn1cc(C(=O)NC)c(=O)c2ccc(-c3cnc(NC(=O)NCC)cc3-c3nc(C(F)(F)F)cs3)cc21` [Example 347, 7-{6-[(ethylcarbamoyl)amino]-4-[4-(trifluoromethyl)-1,3-thiazol-2-yl]pyridin-3-yl}-N-methyl-4-oxo-1-propyl-1,4-dihydroquinoline-3-carboxamide] was run?
A: Its inhibition at 1 µM is 100%.

Q: `CCCn1cc(C(=O)NCCO)c(=O)c2ccc(-c3cnc(NC(=O)NCC)cc3-c3nc(C(F)(F)F)cs3)cc21` [Example 348, 7-{6-[(ethylcarbamoyl)amino]-4-[4-(trifluoromethyl)-1,3-thiazol-2-yl]pyridin-3-yl}-N-(2-hydroxyethyl)-4-oxo-1-propyl-1,4-dihydroquinoline-3-carboxamide] was tested. Which inhibition at 1 µM did it give?
A: Its inhibition at 1 µM is 98%.

Q: How did the inhibition at 1 µM turn out when `CCCn1cc(C(=O)NCCCO)c(=O)c2ccc(-c3cnc(NC(=O)NCC)cc3-c3nc(C(F)(F)F)cs3)cc21` [Example 349, 7-{6-[(ethylcarbamoyl)amino]-4-[4-(trifluoromethyl)-1,3-thiazol-2-yl]pyridin-3-yl}-N-(3-hydroxypropyl)-4-oxo-1-propyl-1,4-dihydroquinoline-3-carboxamide] was run?
A: Its inhibition at 1 µM is 108%.

Q: Which inhibition at 1 µM does the source give for `CCCn1cc(C(=O)NCCN(C)C)c(=O)c2ccc(-c3cnc(NC(=O)NCC)cc3-c3nc(C(F)(F)F)cs3)cc21` [Example 350, N-[2-(dimethylamino)ethyl]-7-{6-[(ethylcarbamoyl)amino]-4-[4-(trifluoromethyl)-1,3-thiazol-2-yl]pyridin-3-yl}-4-oxo-1-propyl-1,4-dihydroquinoline-3-carboxamide] here?
A: Its inhibition at 1 µM is 96%.
